{"source": "patent US20240123016A1", "about": "“WITHANOLIDE-ENRICHED COMPOSITIONS AND METHODS OF USE THEREOF” (priority 2021, published 2024)", "key": {"[1]": {"test_system": "HEK293 cells", "assay": "cells", "settings": "Homo sapiens, HEK293, read-out: IC50 for H2O2 treatment (cell viability)", "procedure": "Cell viability was analyzed using the MTT assay described herein."}, "[2]": {"assay": "DPPH radical scavenging assay (antioxidant activity)", "format": "biochemical", "settings": "1000 μg/ml, 30 minutes", "method": "Antioxidant activity of various Ashwagandha samples was measured using a 2,2-diphenyl-1-picrylhydrazyl (DPPH) radical scavenging assay. DPPH is a stable free radical that produces violet solution in ethanol and, upon reduction by antioxidant compounds, produces light yellow-to-colorless solutions. For comparative antioxidant activity analysis of […], relative to non- branded and branded Ashwagandha compositions, two different dilutions (100 μg/ml and 1000 μg/ml) of each sample were prepared in ethanol and 500 μl of each sample dilution was mixed (1:1) with 500 μl of 0.04 mg/ml DPPH (Sigma #D9132-1G) ethanolic solution. Gallic acid (a natural polyphenolic antioxidant) and sucrose were used as positive and negative controls, respectively. All samples and controls were thoroughly vortexed and incubated for 30 minutes at room temperature in the dark followed by absorbance (Abs) readings at 517 nm using a spectrophotometer. Percentage antioxidant activity was calculated using the formula: 100-(AbsSample-AbsBlank/AbsControl×100), where AbsSample=Sample Dilution+DPPH Solution; AbsBlank=Sample Dilution+DPPH solvent; and AbsControl=Sample Solvent+DPPH Solution."}}}
{"smiles": "OO", "note": "[H2O2, hydrogen peroxide]", "values": [{"measurement": "IC50", "setting": "[1]", "value": 400, "unit": "µM"}]}
{"smiles": "O=C(O)c1cc(O)c(O)c(O)c1", "note": "[Gallic acid]", "values": [{"measurement": "percent anti-oxidant activity (%AA)", "setting": "[2]", "value": "90.12±1.1", "unit": "%"}]}
